Assays:
rats = assay: Shock-Induced Suppression of Drinking (Rats) (SSD) Test; type: in vivo, rat; settings: significant, P less than 0.05, Students' t-test, vs control
Protocol: Male rats in the weight range of 200 to 220 grams are deprived of water for 48 hours and deprived of food for 24 hours before testing. Normally, the rats are orally intubated (5 ml/kg) with the test compound (based on mg/kg body weight). The vehicle control group of rats is also intubated by mouth. A positive control group of rats is also orally administered a control dose of 18 mg/kg of chlordiazepoxide. Random selection of the rats is utilized in dosing. The rats are returned to the cage for one hour. Sixty minutes after drug administration, the rat is quietly removed from its cage and the hind feet wiped with Signa electrode gel made by Parker Laboratories or Orange, N.J. When intraperitoneal (i.p.) administration was used, the protocol was identical except that the drugs were administered (5 ml/kg) 30 minutes prior to testing. The rat is placed on the floor in the chamber facing the licking tube. The animal is allowed 5 minutes to make 20 licking responses and receive the first shock (0.5 mA). […] This period is automatically started, counted and terminated. The number of licks and shocks are recorded. The activity of the compound tested is evaluated by comparing the mean shocks of the group dosed with the test compound to both the mean shocks of the vehicle and positive control groups via a Students' t-test. […]

[1] = tested on: [^3 H]flunitrazepam binding, lysed mitochondrial-synaptosomal (P2) fraction from the cerebral cortex; assay: [^3 H]flunitrazepam binding test; settings: 0.2 nM [^3 H]flunitrazepam, rat cerebral cortex membranes, 90 min at 0° C.
[2] = approximate oral LD50 in the rat; settings: in vivo
monkeys = assay: oral administration to monkeys, deaths; type: in vivo, monkey; settings: 100 mg/kg
[3] = tested on: [^3 H]flunitrazepam binding, lysed mitochondrial-synaptosomal (P2) fraction from the cerebral cortex; settings: general statement on reference compounds; cited from earlier work

Row | Structure (SMILES) | increase in the number of shocks taken (anti-conflict / anti-anxiety activity) (rats) | effect on flunitrazepam binding [1] | LD50 [2] [mg/kg] | deaths (monkeys) | effect on flunitrazepam binding (known compounds) [3]
1 | C=CCN1Cc2nc3c(cnn3CCCCC)c(N)c2C1=O [Example 4, 6-Allyl-4-amino-6,7-dihydro-1-n-pentylpyrazolo[3,4-b]pyrrolo[3,4-e]pyridin-5(1H)-one] | showed activity | activity as displacers of flunitrazepam binding |  |  | 
2 | CCCCCn1ncc2c(N)c3c(nc21)CN(CCC)C3=O [Example 5, 4-Amino-6,7-dihydro-1-n-pentyl-6-n-propylpyrazolo[3,4-b]pyrrolo[3,4-e]pyridin-5(1H)-one] | showed activity | activity as displacers of flunitrazepam binding | > 800 | no deaths | 
3 | CCCCNc1c(C(=O)OCC)cnc2c1cnn2CC [cartazolate] |  |  |  |  | enchancement of the binding
4 | CCCCNc1c(C(=O)OCC)c(C)nc2c1cnn2CC [tracazolate] |  |  |  |  | enchancement of the binding
